Values after ≈ are worked out from the molar mass of the structure shown. Where two headings read alike, the source gives them in different places. One block for each molecule: values may come before it. Ends that are not written are not given here.
What was measured:
S. aureus ATCC 29213 [1] = experiment: microbe, parasite or virus in culture; conditions: for MIC: Staphylococcus aureus; for Increase of MIC: relative to first passage
Procedure: To determine the MICs of CSP-4, a single colony of S. aureus ATCC 29213 was cultured at 37° C in tryptic soy broth, as well as daptomycin and linezolid, which served as commercial antibiotic positive controls. […] For each agent, the MIC was determined daily for 29 days at pH 5.5 and/or for 8 days at pH 7.4 using cells from wells containing half the MIC (1/2 MIC well). […] All MICs were determined in duplicate.

P. aeruginosa 3543 = experiment: microbe, parasite or virus in culture; type: cell-based, Pseudomonas aeruginosa; conditions: pH (I or II) not given; 10 mM sodium phosphate buffer, 10% LB; 37° C, 24 h; mean of 3 experiments
Text: (§1) The method for peptide synthesis has been described in detail previously. E. coli ATCC 25922 (LB media), P. aeruginosa ATCC 15692 (NB+0.5% NaCl media), Listeria monocytogenes ATCC 3710 (LB media), Staphylococcus epidermidis ATCC 12228 (LB media), and S. aureus ATCC 29213 (TSB media) were obtained from the American Type Culture Collection (Manassas, VA, USA). Bacillus subtilis KCTC 1998 (LB media), Salmonella typhimurium KCTC 1926 (NB media), and Proteus vulgaris KCTC 2433 (NB media) were obtained from the Korean Collection for Type Cultures (Jeollabuk-do, Korea). E. coli CCARM 1238 was received from the Culture Collection of Antibiotic Resistant Microbes at Seoul Women’s University, Korea. Drug-resistant P. aeruginosa 3543, 3904, 3547, and 4007 and S. aureus 3126, 0027, 5157, 1635, 4761, 5159, 3359, 2122, 1630, 1870, 3511, 5156, and 3518 were resistant strains isolated from patients with otitis media in a Chonnam National University’s hospital.
(§2) The antibacterial activities of AMPs (melittin, clavaspirin, and its analogs) and conventional antibiotic drugs (erythromycin, gentamicin, ampicillin, and piperacidin) were determined using microdilution assays. Bacterial cells were cultured at 37° C in appropriate culture media at pH 5.5 or pH 7.4 until collection during the mid-log phase and suspended in 10 mM sodium phosphate buffer (pH 5.5 or pH 7.4) supplemented with 10% culture medium. Thereafter, 2× serial dilutions of each peptide (0.25–128 μM) or antibiotic (0.25–256 μM) were added to sterile 96-well plates, and aliquots of cell suspension (5 × 10^5 colony forming units (cfu)/mL) were seeded into each well. The samples were then incubated at 37° C for 24 h. At the end of the incubation, the minimum inhibitory concentrations (MICs) of the peptides were determined using a VERSA Max microplate reader (Molecular Devices Co., Sunnyvale, CA, USA) at a wavelength of 600 nm. […] MIC values were calculated as the mean of 3 independent experiments conducted in triplicate.

P. aeruginosa 3547 = experiment: microbe, parasite or virus in culture; type: cell-based, Pseudomonas aeruginosa; conditions: pH (I or II) not given; 10 mM sodium phosphate buffer, 10% LB; 37° C, 24 h; mean of 3 experiments
Text: as §1, §2

P. aeruginosa 3904 = experiment: microbe, parasite or virus in culture; type: cell-based, Pseudomonas aeruginosa; conditions: pH (I or II) not given; 10 mM sodium phosphate buffer, 10% LB; 37° C, 24 h; mean of 3 experiments
Text: as §1, §2

P. aeruginosa 4007 = experiment: microbe, parasite or virus in culture; type: cell-based, Pseudomonas aeruginosa; conditions: pH (I or II) not given; 10 mM sodium phosphate buffer, 10% LB; 37° C, 24 h; mean of 3 experiments
Text: as §1, §2

E. coli ATCC 25922 = type: cell-based, Escherichia coli; conditions: 10 mM sodium phosphate buffer, 10% LB, 37° C, 24 h, mean of 3 experiments
Text: as §1, §2

P. aeruginosa ATCC 15692 = type: cell-based, Pseudomonas aeruginosa; conditions: 10 mM sodium phosphate buffer, 10% LB, 37° C, 24 h, mean of 3 experiments
Text: as §1, with “E. coli ATCC 25922 (LB media), P. aeruginosa ATCC 15692 (NB+0.5% NaCl media), Listeria monocytogenes ATCC 3710 (LB media), Staphylococcus epidermidis ATCC 12228 (LB media), and S. aureus ATCC 29213 (TSB media) were obtained from the American Type Culture Collection (Manassas, VA, USA).” left out
as §2, with “Bacterial cells were cultured at 37° C in appropriate culture media at pH 5.5 or pH 7.4 until collection during the mid-log phase and suspended in 10 mM sodium phosphate buffer (pH 5.5 or pH 7.4) supplemented with 10% culture medium.” left out

[2] = system: Bacillus subtilis KCTC 1998; type: cell-based; conditions: 10 mM sodium phosphate buffer, 10% LB, 37° C, 24 h, mean of 3 experiments
Text: as §1, §2

[3] = system: Listeria monocytogenes ATCC 3710; type: cell-based; conditions: 10 mM sodium phosphate buffer, 10% LB, 37° C, 24 h, mean of 3 experiments
Text: as §1, §2

[4] = system: Staphylococcus epidermidis ATCC 12228; type: cell-based; conditions: 10 mM sodium phosphate buffer, 10% LB, 37° C, 24 h, mean of 3 experiments
Text: as §1, §2

S. aureus ATCC 29213 [5] = type: cell-based, Staphylococcus aureus; conditions: 10 mM sodium phosphate buffer, 10% LB, 37° C, 24 h, mean of 3 experiments
Text: as §1, with “E. coli ATCC 25922 (LB media), P. aeruginosa ATCC 15692 (NB+0.5% NaCl media), Listeria monocytogenes ATCC 3710 (LB media), Staphylococcus epidermidis ATCC 12228 (LB media), and S. aureus ATCC 29213 (TSB media) were obtained from the American Type Culture Collection (Manassas, VA, USA).” left out
as §2

[6] = system: Proteus vulgaris KCTC 2433; type: cell-based; conditions: 10 mM sodium phosphate buffer, 10% LB, 37° C, 24 h, mean of 3 experiments
Text: as §1, with “Bacillus subtilis KCTC 1998 (LB media), Salmonella typhimurium KCTC 1926 (NB media), and Proteus vulgaris KCTC 2433 (NB media) were obtained from the Korean Collection for Type Cultures (Jeollabuk-do, Korea).” left out
as §2

[7] = system: Salmonella typhimurium KCTC 1926; type: cell-based; conditions: 10 mM sodium phosphate buffer, 10% LB, 37° C, 24 h, mean of 3 experiments
Text: as §1, with “Bacillus subtilis KCTC 1998 (LB media), Salmonella typhimurium KCTC 1926 (NB media), and Proteus vulgaris KCTC 2433 (NB media) were obtained from the Korean Collection for Type Cultures (Jeollabuk-do, Korea).” left out
as §2

[8] = system: human red blood cells (hRBCs); experiment: Hemolysis; type: cell-based; conditions: PBS buffer containing 8% hRBCs, 1 h, 37° C, absorbance 414 nm, triplicate
Procedure: Fresh human red blood cells (hRBCs) from healthy donors were centrifuged at 800 × g and washed with phosphate-buffered saline (PBS) until the supernatant was clear. Twofold serial dilutions of the peptides in PBS were added to a 96-well plate, after which the hRBCs were added to obtain a final concentration of 8% (vol/vol). The samples were then incubated with mild agitation for 1 h at 37° C. The samples were then centrifuged at 800 × g for 10 min, and the absorbance of the supernatant was measured at 414 nm. All the measurements were performed in triplicate, and the percentages of hemolysis were calculated using equation 1: % hemolysis=[(A414 in peptide solution−A414 in PBS)/(A414 in […]−A414 in PBS)]×100 (1)
Where 100% hemolysis was defined as the absorbance measured from hRBCs exposed to 1% Triton X-100 and zero hemolysis was characterized using hRBCs alone in PBS [40].

[9] = system: HaCaT (human keratinocyte) cells; experiment: Cytotoxicity, MTT assay; type: cell-based; conditions: DMEM containing 10% FBS and 1% PS, 24 h, 37° C
Procedure: To examine the cytotoxic effects of the peptides, HaCaT (human keratinocyte) cells were cultured in Dulbecco’s modified Eagle’s medium (DMEM) supplemented with antibiotics (100 U/ml penicillin and 100 μg/ml streptomycin) and 10% fetal calf serum at 37° C in a humidified chamber under a 5% CO2 atmosphere. Growth inhibition was evaluated using 3-(4, 5-dimethylthizol-2-yl)-2, 5-diphenyltetrazolium bromide (MTT) assays to measure cell viability. After cells were seeded into a 96-well plate at a density of 2 × 10^4/well and incubated for 24 h, twofold serial dilutions of each peptide in DMEM were added to the wells, and the cells were incubated for an additional 24 h at 37° C. Thereafter, 10 μl of MTT (5 mg/ml) was added to each well, and the plate was incubated for 4 h. The supernatants were then removed, and 50 μl of DMSO was added to each well to dissolve any remaining precipitate. Finally, the absorbance at 570 nm was measured using a microtiter reader.

[10] = after 8 passages at pH 7.4, 10 mM sodium phosphate buffer, 10% tryptic soy broth

Molecule: CC(=O)NC[C@H]1CN(c2ccc(N3CCOCC3)c(F)c2)C(=O)O1 [linezolid]
- MIC (S. aureus ATCC 29213 [1]; ATCC29213, pH 5.5, read-out: MIC at start of resistance induction): 4 µM (≈ 1.35 µg/mL)
- MIC (S. aureus ATCC 29213 [1]; ATCC29213, pH 7.4, read-out: MIC at start of resistance induction): 8 µM (≈ 2.7 µg/mL)
- Increase of MIC (S. aureus ATCC 29213 [1]; [10]): approximately 200 ×
- Passages over which resistance was induced (S. aureus ATCC 29213 [1]; pH 5.5): 24 passages
- Passages after which resistance was induced (S. aureus ATCC 29213 [1]; pH 7.4): 5 passages

Molecule: CCCCCCCCCC(=O)N[C@@H](Cc1c[nH]c2ccccc12)C(=O)N[C@H](CC(N)=O)C(=O)N[C@@H](CC(=O)O)C(=O)N[C@@H]1C(=O)NCC(=O)N[C@@H](CCCN)C(=O)N[C@@H](CC(=O)O)C(=O)N[C@H](C)C(=O)N[C@@H](CC(=O)O)C(=O)NCC(=O)N[C@H](CO)C(=O)N[C@@H]([C@H](C)CC(=O)O)C(=O)N[C@@H](CC(=O)c2ccccc2N)C(=O)O[C@@H]1C [daptomycin]
- Increase of MIC (S. aureus ATCC 29213 [1]; [10]): approximately 1000 ×
- Increase of MIC (S. aureus ATCC 29213 [1]; after 29 passages at pH 5.5): over 8000 ×
- Increase of MIC following prolonged exposure (S. aureus ATCC 29213 [1]; following prolonged exposure): ≤ 8000 fold
- MIC at start of resistance induction (S. aureus ATCC 29213 [1]; pH 5.5): 0.25 µM
- Passages over which resistance was induced (S. aureus ATCC 29213 [1]; pH 5.5): 24 passages
- MIC at start of resistance induction (S. aureus ATCC 29213 [1]; pH 7.4): 4 µM
- Passages after which resistance was induced (S. aureus ATCC 29213 [1]; pH 7.4): 5 passages

- MIC (P. aeruginosa 3543): >800 µM
- MIC (P. aeruginosa 3547): 200 µM (≈ 104 µg/mL)
- MIC (P. aeruginosa 3904): >800 µM
- MIC (P. aeruginosa 4007): >800 µM
Molecule: CCN1CCN(C(=O)N[C@@H](C(=O)N[C@@H]2C(=O)N3[C@@H]2SC(C)(C)[C@@H]3C(=O)O)c2ccccc2)C(=O)C1=O [piperacidin]

Molecule: FLRFIGSVIHGIGHLVHHIGVAL-NH2 [Clavaspirin]
- MIC, E. coli (E. coli ATCC 25922; pH 5.5 (I)): 2 µM
- MIC, E. coli (E. coli ATCC 25922; pH 7.4 (II)): 64 µM
- MIC, P. aeruginosa (P. aeruginosa ATCC 15692; pH 5.5 (I)): 32 µM
- MIC, P. aeruginosa (P. aeruginosa ATCC 15692; pH 7.4 (II)): >64 µM
- MIC, B. subtilis ([2]; pH 5.5 (I)): 16 µM
- MIC, B. subtilis ([2]; pH 7.4 (II)): 64 µM
- MIC, L. monocytogenes ([3]; pH 5.5 (I)): 16 µM
- MIC, L. monocytogenes ([3]; pH 7.4 (II)): 64 µM
- MIC, S. epidermidis ([4]; pH 5.5 (I)): 4 µM
- MIC, S. epidermidis ([4]; pH 7.4 (II)): 32 µM
- MIC, S. aureus (S. aureus ATCC 29213 [5]; pH 5.5 (I)): 16 µM
- MIC, S. aureus (S. aureus ATCC 29213 [5]; pH 7.4 (II)): 64 µM
- MIC, P. vulgaris ([6]; pH 5.5 (I)): 8 µM
- MIC, P. vulgaris ([6]; pH 7.4 (II)): 64 µM
- MIC, S. typhimurium ([7]; pH 5.5 (I)): 32 µM
- MIC, S. typhimurium ([7]; pH 7.4 (II)): 64 µM
- HC10 (hemolytic activity) [8]: 37
- HC50 (hemolytic activity) [8]: 64
- EC10 (effective concentration in HaCaT cells) [9]: 66

Source: PMC5884652, “New antimicrobial peptide kills drug-resistant pathogens without detectable resistance” (Oncotarget, 2018)
